Measurements taken from article PMC449707 (BMC Pharmacology, 2004).

Tested on: whole bone marrow cells
Assay: Fibroblastic colony forming unit
Type: cell-based, rat
Conditions: for effect on colony number of co-treatment with exogenous PGE2: 10 μM PDE inhibitor plus PGE2 as low as 0.1 nM; for effect on colony number, agent alone: 10 μM, CFU-f assay, no exogenous PGE2

| SMILES | effect on colony number of co-treatment with exogenous PGE2 | effect on colony number, agent alone |
| --- | --- | --- |
| CC(C)Cn1c(=O)n(C)c(=O)c2[nH]cnc21 [IBMX, isobutylmethylxanthine] | almost maximal responses | significant stimulation in colony number |
| COc1ccc(C2CNC(=O)C2)cc1OC1CCCC1 (stereo not shown) [rolipram] | almost maximal responses | significant stimulation in colony number |
